The NIST ThermoML archive (doi:10.1016/j.jct.2017.08.004)

Experiments:
[1] = for molar entropy: 101.33 kPa; for Normal melting temperature: DTA
[2] = Molar enthalpy of transition or fusion; details: Crystal; DSC

O[C@H]1[C@H](O)[C@@H](O)[C@H](O)[C@@H](O)[C@H]1O [cis-1,2,3,5-trans-4,6-cyclohexanehexol]
[1]
Details | molar entropy [J/K/mol]
1 K, Crystal, relaxation calorimetry | 0.001133
2 K, Crystal, relaxation calorimetry | 0.00457
3 K, Crystal, relaxation calorimetry | 0.01283
4 K, Crystal, relaxation calorimetry | 0.0288
5 K, Crystal, relaxation calorimetry | 0.05587
6 K, Crystal, relaxation calorimetry | 0.09786
7 K, Crystal, relaxation calorimetry | 0.1588
8 K, Crystal, relaxation calorimetry | 0.2429
9 K, Crystal, relaxation calorimetry | 0.3528
10 K, Crystal, relaxation calorimetry | 0.4907
15 K, Crystal, relaxation calorimetry | 1.619
20 K, Crystal, relaxation calorimetry | 3.401
25 K, Crystal, relaxation calorimetry | 5.648
30 K, Crystal, relaxation calorimetry | 8.19
35 K, Crystal, relaxation calorimetry | 10.93
40 K, Crystal, relaxation calorimetry | 13.82
45 K, Crystal, relaxation calorimetry | 16.84
50 K, Crystal, relaxation calorimetry | 19.96
55 K, Crystal, relaxation calorimetry | 23.14
60 K, Crystal, relaxation calorimetry | 26.38
65 K, Crystal, relaxation calorimetry | 29.66
70 K, Crystal, relaxation calorimetry | 33
75 K, Crystal, relaxation calorimetry | 36.38
80 K, Crystal, relaxation calorimetry | 39.8
85 K, Crystal, relaxation calorimetry | 43.26
90 K, Crystal, relaxation calorimetry | 46.76
95 K, Crystal, relaxation calorimetry | 50.29
100 K, Crystal, relaxation calorimetry | 53.84
110 K, Crystal, relaxation calorimetry | 61.01
120 K, Crystal, relaxation calorimetry | 68.23
130 K, Crystal, relaxation calorimetry | 75.5
140 K, Crystal, relaxation calorimetry | 82.8
150 K, Crystal, relaxation calorimetry | 90.1
160 K, Crystal, relaxation calorimetry | 97.42
170 K, Crystal, relaxation calorimetry | 104.72
180 K, Crystal, relaxation calorimetry | 112.03
190 K, Crystal, relaxation calorimetry | 119.33
200 K, Crystal, relaxation calorimetry | 126.62
210 K, Crystal, relaxation calorimetry | 133.91
220 K, Crystal, relaxation calorimetry | 141.19
230 K, Crystal, relaxation calorimetry | 148.47
240 K, Crystal, relaxation calorimetry | 155.74
250 K, Crystal, relaxation calorimetry | 163.02
260 K, Crystal, relaxation calorimetry | 170.3
270 K, Crystal, relaxation calorimetry | 177.58
273.15 K, Crystal, relaxation calorimetry | 179.88
280 K, Crystal, relaxation calorimetry | 184.87
290 K, Crystal, relaxation calorimetry | 192.17
298.15 K, Crystal, relaxation calorimetry | 198.12
300 K, Crystal, relaxation calorimetry | 199.48
305 K, Crystal, Small sample (50 mg) DSC | 203.13
310 K, Crystal, Small sample (50 mg) DSC | 206.81
315 K, Crystal, Small sample (50 mg) DSC | 210.5
320 K, Crystal, Small sample (50 mg) DSC | 214.2
325 K, Crystal, Small sample (50 mg) DSC | 217.91
330 K, Crystal, Small sample (50 mg) DSC | 221.64
335 K, Crystal, Small sample (50 mg) DSC | 225.37
340 K, Crystal, Small sample (50 mg) DSC | 229.11
345 K, Crystal, Small sample (50 mg) DSC | 232.86
350 K, Crystal, Small sample (50 mg) DSC | 236.62
355 K, Crystal, Small sample (50 mg) DSC | 240.38
360 K, Crystal, Small sample (50 mg) DSC | 244.15
365 K, Crystal, Small sample (50 mg) DSC | 247.92
370 K, Crystal, Small sample (50 mg) DSC | 251.69
375 K, Crystal, Small sample (50 mg) DSC | 255.47
380 K, Crystal, Small sample (50 mg) DSC | 259.25
385 K, Crystal, Small sample (50 mg) DSC | 263.03
390 K, Crystal, Small sample (50 mg) DSC | 266.82
395 K, Crystal, Small sample (50 mg) DSC | 270.6
400 K, Crystal, Small sample (50 mg) DSC | 274.38
405 K, Crystal, Small sample (50 mg) DSC | 278.16
410 K, Crystal, Small sample (50 mg) DSC | 281.94
415 K, Crystal, Small sample (50 mg) DSC | 285.72
420 K, Crystal, Small sample (50 mg) DSC | 289.5
425 K, Crystal, Small sample (50 mg) DSC | 293.27
430 K, Crystal, Small sample (50 mg) DSC | 297.05
435 K, Crystal, Small sample (50 mg) DSC | 300.82
440 K, Crystal, Small sample (50 mg) DSC | 304.59
445 K, Crystal, Small sample (50 mg) DSC | 308.35
450 K, Crystal, Small sample (50 mg) DSC | 312.12
455 K, Crystal, Small sample (50 mg) DSC | 315.89
460 K, Crystal, Small sample (50 mg) DSC | 319.66
465 K, Crystal, Small sample (50 mg) DSC | 323.43
470 K, Crystal, Small sample (50 mg) DSC | 327.21
475 K, Crystal, Small sample (50 mg) DSC | 331
480 K, Crystal, Small sample (50 mg) DSC | 334.8
485 K, Crystal, Small sample (50 mg) DSC | 338.61
490 K, Crystal, Small sample (50 mg) DSC | 342.46
495 K, Crystal, Small sample (50 mg) DSC | 346.55
510 K, Liquid, Small sample (50 mg) DSC | 453.9
515 K, Liquid, Small sample (50 mg) DSC | 458.89
520 K, Liquid, Small sample (50 mg) DSC | 463.79
525 K, Liquid, Small sample (50 mg) DSC | 468.65
530 K, Liquid, Small sample (50 mg) DSC | 473.46
535 K, Liquid, Small sample (50 mg) DSC | 478.23
540 K, Liquid, Small sample (50 mg) DSC | 482.95

Details | Normal melting temperature [°C]
[1], Crystal | 224.58

Details | Molar enthalpy of transition or fusion [kcal/mol]
[2] | 12

OC[C@@H](O)[C@@H](O)CO [meso-1,2,3,4-butanetetrol]
[1]
Details | molar entropy [J/K/mol]
1 K, Crystal, relaxation calorimetry | 0.0005942
2 K, Crystal, relaxation calorimetry | 0.002515
3 K, Crystal, relaxation calorimetry | 0.007205
4 K, Crystal, relaxation calorimetry | 0.01633
5 K, Crystal, relaxation calorimetry | 0.03184
6 K, Crystal, relaxation calorimetry | 0.05604
7 K, Crystal, relaxation calorimetry | 0.09153
8 K, Crystal, relaxation calorimetry | 0.1411
9 K, Crystal, relaxation calorimetry | 0.2079
10 K, Crystal, relaxation calorimetry | 0.2944
15 K, Crystal, relaxation calorimetry | 1.077
20 K, Crystal, relaxation calorimetry | 2.466
25 K, Crystal, relaxation calorimetry | 4.373
30 K, Crystal, relaxation calorimetry | 6.67
35 K, Crystal, relaxation calorimetry | 9.244
40 K, Crystal, relaxation calorimetry | 12.02
45 K, Crystal, relaxation calorimetry | 14.94
50 K, Crystal, relaxation calorimetry | 17.96
55 K, Crystal, relaxation calorimetry | 21.05
60 K, Crystal, relaxation calorimetry | 24.19
65 K, Crystal, relaxation calorimetry | 27.37
70 K, Crystal, relaxation calorimetry | 30.57
75 K, Crystal, relaxation calorimetry | 33.79
80 K, Crystal, relaxation calorimetry | 37.01
85 K, Crystal, relaxation calorimetry | 40.23
90 K, Crystal, relaxation calorimetry | 43.44
95 K, Crystal, relaxation calorimetry | 46.65
100 K, Crystal, relaxation calorimetry | 49.83
110 K, Crystal, relaxation calorimetry | 56.17
120 K, Crystal, relaxation calorimetry | 62.43
130 K, Crystal, relaxation calorimetry | 68.62
140 K, Crystal, relaxation calorimetry | 74.74
150 K, Crystal, relaxation calorimetry | 80.8
160 K, Crystal, relaxation calorimetry | 86.79
170 K, Crystal, relaxation calorimetry | 92.72
180 K, Crystal, relaxation calorimetry | 98.61
190 K, Crystal, relaxation calorimetry | 104.44
200 K, Crystal, relaxation calorimetry | 110.22
210 K, Crystal, relaxation calorimetry | 115.97
220 K, Crystal, relaxation calorimetry | 121.68
230 K, Crystal, relaxation calorimetry | 127.36
240 K, Crystal, relaxation calorimetry | 133.01
250 K, Crystal, relaxation calorimetry | 138.64
260 K, Crystal, relaxation calorimetry | 144.24
270 K, Crystal, relaxation calorimetry | 149.82
273.15 K, Crystal, relaxation calorimetry | 151.57
280 K, Crystal, relaxation calorimetry | 155.38
290 K, Crystal, relaxation calorimetry | 160.92
298.15 K, Crystal, relaxation calorimetry | 165.43
300 K, Crystal, relaxation calorimetry | 166.46
305 K, Crystal, Small sample (50 mg) DSC | 169.22
310 K, Crystal, Small sample (50 mg) DSC | 172
315 K, Crystal, Small sample (50 mg) DSC | 174.78
320 K, Crystal, Small sample (50 mg) DSC | 177.57
325 K, Crystal, Small sample (50 mg) DSC | 180.36
330 K, Crystal, Small sample (50 mg) DSC | 183.15
335 K, Crystal, Small sample (50 mg) DSC | 185.94
340 K, Crystal, Small sample (50 mg) DSC | 188.74
345 K, Crystal, Small sample (50 mg) DSC | 191.53
350 K, Crystal, Small sample (50 mg) DSC | 194.32
355 K, Crystal, Small sample (50 mg) DSC | 197.11
360 K, Crystal, Small sample (50 mg) DSC | 199.9
365 K, Crystal, Small sample (50 mg) DSC | 202.7
370 K, Crystal, Small sample (50 mg) DSC | 205.49
375 K, Crystal, Small sample (50 mg) DSC | 208.29
380 K, Crystal, Small sample (50 mg) DSC | 211.1
385 K, Crystal, Small sample (50 mg) DSC | 213.99
390 K, Crystal, Small sample (50 mg) DSC | 217.51
405 K, Liquid, Small sample (50 mg) DSC | 333.59
410 K, Liquid, Small sample (50 mg) DSC | 338.24
415 K, Liquid, Small sample (50 mg) DSC | 342.55
420 K, Liquid, Small sample (50 mg) DSC | 346.8
425 K, Liquid, Small sample (50 mg) DSC | 351
430 K, Liquid, Small sample (50 mg) DSC | 355.15
435 K, Liquid, Small sample (50 mg) DSC | 359.26

Details | Normal melting temperature [°C]
[1], Crystal | 121.67

Details | Molar enthalpy of transition or fusion [kcal/mol]
[2] | 10.7
